Source: ChEMBL document CHEMBL5154675, “Design, Synthesis, and Biological Evaluation of 1-(Indolizin-3-yl)ethan-1-ones as CBP Bromodomain Inhibitors for the Treatment of Prostate Cancer” (J Med Chem, 2022)
Each block holds one compound with its values, some of them ahead of it.

Tests used:
[1] = Apparent permeability across basolateral to apical side in human Caco-2 cells at 10 uM measured after 2 hrs by LC-MS/MS analysis; assay type: ADME, cell-based
[2] = molecular target: T1, Bromodomain-containing protein 2 (Homo sapiens, UniProt P25440); details: dose 200.0 µM, time 30.0 min
[3] = molecular target: Histone acetyltransferase KAT2B (Homo sapiens) (UniProt Q92831); details: dose 200.0 µM, time 30.0 min
CREB-binding protein [4] = molecular target: T2, CREB-binding protein (Homo sapiens, UniProt Q92793); details: dose 200.0 µM, time 30.0 min
[5] = molecular target: T3, Bromodomain testis-specific protein (Homo sapiens, UniProt Q58F21); details: dose 200.0 µM, time 30.0 min
[6] = Clearance in Sprague-Dawley rat at 5 mg/kg, iv administered as single dose measured up to 24 hrs; assay type: ADME, organism-based; details: Sprague-Dawley, in vivo
[7] = AUC (0 to infinity) in Sprague-Dawley rat at 5 mg/kg, iv administered as single dose measured up to 24 hrs; assay type: ADME, organism-based; set-up: time < 24 hrs, dose 5 mg/kg, route iv; details: in vivo
[8] = molecular target: T4, Bromodomain-containing protein 3 (Homo sapiens, UniProt Q15059); details: dose 200.0 µM, time 30.0 min
[9] = Hepatic clearance in rat liver microsomes at 1 uM incubated for 45 mins in presence of NADPH by LC-MS/MS analysis; assay type: ADME, Microsome
[10] = molecular target: SWI/SNF-related matrix-associated actin-dependent regulator of chromatin subfamily A member 2 (Homo sapiens) (UniProt P51531); details: dose 200.0 µM, time 30.0 min
[11] = Hepatic clearance in human liver microsomes at 1 uM incubated for 45 mins in presence of NADPH by LC-MS/MS analysis; assay type: ADME, Microsome; details: read-out: CLH
[12] = molecular target: PH-interacting protein (Homo sapiens) (UniProt Q8WWQ0); details: dose 200.0 µM, time 30.0 min
[13] = molecular target: T5, Bromodomain-containing protein 4 (Homo sapiens, UniProt O60885); details: dose 200.0 µM, time 30.0 min
in vitro = details: rat, liver microsomes
Description: Hepatic extraction ratio in rat liver microsomes at 1 uM incubated for 45 mins in presence of NADPH by LC-MS/MS analysis

LNCaP = experiment: Antiproliferative activity against human LNCaP cells assessed as cell growth inhibition by Celltiter-Glo assay; assay type: functional, cell-based
[14] = Half life in Sprague-Dawley rat at 25 mg/kg, po measured up to 24 hrs; assay type: ADME, organism-based; details: in vivo
[15] = Apparent permeability across apical to basolateral side in human Caco-2 cells assessed as drug recovery at 10 uM measured after 2 hrs by LC-MS/MS analysis; assay type: ADME, cell-based; details: read-out: Drug recovery
[16] = molecular target: Histone acetyltransferase p300 (Homo sapiens) (UniProt Q09472); details: dose 200.0 µM, time 30.0 min
[17] = Intrinsic clearance in human liver microsomes at 1 uM incubated for 45 mins in presence of NADPH by LC-MS/MS analysis; assay type: ADME, Microsome; details: read-out: CLH
[18] = AUC (0 to infinity) in Sprague-Dawley rat at 25 mg/kg, po measured up to 24 hrs; assay type: ADME, organism-based; set-up: time < 24 hrs, dose 25 mg/kg, route po; details: in vivo
CWR22R = experiment: Antiproliferative activity against human 22Rv1 cells assessed as cell growth inhibition by Celltiter-Glo assay; assay type: functional, cell-based
CREB-binding protein [19] = molecular target: T2, CREB-binding protein; experiment: Inhibition of His6-tagged human CBP bromodomain (1081 to 1197 residues) expressed in Escherichia coli BL21 (DE3) incubated for 30 mins by HTRF assay
[20] = molecular target: T1, Bromodomain-containing protein 2; details: dose 200.0 µM, time 30.0 min; remark: listed apart in the source
[21] = Efflux ratio of apparent permeability across basolateral to apical side over apical to basolateral side in human Caco-2 cells at 10 uM measured after 2 hrs by LC-MS/MS analysis; assay type: ADME, cell-based
[22] = Cmax in Sprague-Dawley rat at 25 mg/kg, po measured up to 24 hrs; assay type: ADME, organism-based; set-up: dose 25 mg/kg, time < 24 hrs, route po; details: in vivo
[23] = molecular target: T3, Bromodomain testis-specific protein; details: dose 200.0 µM, time 30.0 min; remark: listed apart in the source
[24] = Half life in Sprague-Dawley rat at 5 mg/kg, iv administered as single dose measured up to 24 hrs; assay type: ADME, organism-based; details: in vivo
[25] = Metabolic stability in rat liver microsomes assessed as parent compound remaining at 1 uM incubated for 45 mins in presence of NADPH by LC-MS/MS analysis; assay type: ADME, Microsome; details: read-out: Stability
[26] = Metabolic stability in human liver microsomes assessed as parent compound remaining at 1 uM incubated for 45 mins in presence of NADPH by LC-MS/MS analysis; assay type: ADME, Microsome; details: read-out: Stability
[27] = molecular target: T5, Bromodomain-containing protein 4; details: dose 200.0 µM, time 30.0 min; remark: listed apart in the source
LNCaP C4-2B = experiment: Antiproliferative activity against human LNCaP C4-2B cells assessed as inhibition of cell growth by Celltiter-Glo assay; assay type: functional, cell-based
[28] = molecular target: Bromodomain adjacent to zinc finger domain protein 2B (Homo sapiens) (UniProt Q9UIF8); details: dose 200.0 µM, time 30.0 min
[29] = Half life in human liver microsomes at 1 uM incubated for 45 mins in presence of NADPH by LC-MS/MS analysis; assay type: ADME, Microsome
[30] = molecular target: T4, Bromodomain-containing protein 3; details: dose 200.0 µM, time 30.0 min; remark: listed apart in the source
[31] = Half life in rat liver microsomes at 1 uM incubated for 45 mins in presence of NADPH by LC-MS/MS analysis; assay type: ADME, Microsome
[32] = molecular target: T6, Bromodomain-containing protein 9 (Homo sapiens) (UniProt Q9H8M2); details: dose 200.0 µM, time 30.0 min
T6 sequence (whole entry): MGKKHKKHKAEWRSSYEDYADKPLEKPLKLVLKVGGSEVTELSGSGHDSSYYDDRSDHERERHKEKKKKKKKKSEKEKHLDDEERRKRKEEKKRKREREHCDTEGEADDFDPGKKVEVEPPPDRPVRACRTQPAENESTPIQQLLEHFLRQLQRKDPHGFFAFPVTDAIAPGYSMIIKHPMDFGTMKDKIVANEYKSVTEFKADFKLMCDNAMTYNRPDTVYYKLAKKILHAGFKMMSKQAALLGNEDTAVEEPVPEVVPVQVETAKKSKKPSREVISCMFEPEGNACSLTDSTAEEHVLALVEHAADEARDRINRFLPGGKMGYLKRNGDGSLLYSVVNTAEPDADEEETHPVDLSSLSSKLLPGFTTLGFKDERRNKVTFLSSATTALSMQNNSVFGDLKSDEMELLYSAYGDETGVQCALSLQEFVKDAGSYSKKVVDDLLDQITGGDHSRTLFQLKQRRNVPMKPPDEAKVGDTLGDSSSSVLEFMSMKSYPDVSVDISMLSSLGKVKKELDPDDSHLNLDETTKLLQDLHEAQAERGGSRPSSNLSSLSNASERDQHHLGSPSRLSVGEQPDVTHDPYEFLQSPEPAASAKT

[33] = Apparent permeability across apical to basolateral side in human Caco-2 cells at 10 uM measured after 2 hrs by LC-MS/MS analysis; assay type: ADME, cell-based
[34] = Intrinsic clearance in rat liver microsomes at 1 uM incubated for 45 mins in presence of NADPH by LC-MS/MS analysis; assay type: ADME, Microsome; details: read-out: CLH
[35] = Oral bioavailability in Sprague-Dawley rat at 25 mg/kg measured up to 24 hrs; assay type: ADME, organism-based; details: in vivo
[36] = Apparent permeability across basolateral to apical side in human Caco-2 cells assessed as drug recovery at 10 uM measured after 2 hrs by LC-MS/MS analysis; assay type: ADME, cell-based; details: read-out: Drug recovery
[37] = Hepatic extraction ratio in human liver microsomes at 1 uM incubated for 45 mins in presence of NADPH by LC-MS/MS analysis; assay type: ADME, Microsome; details: read-out: ERH
[38] = molecular target: Chromatin remodeling regulator CECR2 (Homo sapiens) (UniProt Q9BXF3); details: dose 200.0 µM, time 30.0 min
[39] = Cmax in Sprague-Dawley rat at 5 mg/kg, iv administered as single dose measured up to 24 hrs; assay type: ADME, organism-based; set-up: time < 24 hrs, dose 5 mg/kg, route iv; details: in vivo

T4 sequence (Q15059 2-726 limits assumed): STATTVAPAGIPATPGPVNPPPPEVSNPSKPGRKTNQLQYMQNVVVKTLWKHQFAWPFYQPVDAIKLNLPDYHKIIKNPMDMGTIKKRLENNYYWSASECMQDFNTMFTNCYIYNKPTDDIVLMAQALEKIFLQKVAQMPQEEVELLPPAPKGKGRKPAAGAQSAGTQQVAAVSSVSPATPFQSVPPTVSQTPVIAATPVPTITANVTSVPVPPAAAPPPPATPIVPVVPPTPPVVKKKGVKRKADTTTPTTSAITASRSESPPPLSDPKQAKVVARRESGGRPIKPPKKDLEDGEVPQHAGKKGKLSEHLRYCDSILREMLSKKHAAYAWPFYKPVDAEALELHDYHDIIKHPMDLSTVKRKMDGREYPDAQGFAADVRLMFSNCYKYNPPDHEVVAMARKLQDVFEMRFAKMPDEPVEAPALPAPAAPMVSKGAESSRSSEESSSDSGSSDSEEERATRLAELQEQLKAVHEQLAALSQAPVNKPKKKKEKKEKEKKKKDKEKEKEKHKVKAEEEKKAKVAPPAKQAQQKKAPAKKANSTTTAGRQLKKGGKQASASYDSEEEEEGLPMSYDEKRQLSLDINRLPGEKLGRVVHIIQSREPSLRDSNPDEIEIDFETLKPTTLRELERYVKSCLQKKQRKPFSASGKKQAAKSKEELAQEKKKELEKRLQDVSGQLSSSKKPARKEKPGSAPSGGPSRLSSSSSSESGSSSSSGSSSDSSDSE
T1 sequence (P25440 whole entry, looked up): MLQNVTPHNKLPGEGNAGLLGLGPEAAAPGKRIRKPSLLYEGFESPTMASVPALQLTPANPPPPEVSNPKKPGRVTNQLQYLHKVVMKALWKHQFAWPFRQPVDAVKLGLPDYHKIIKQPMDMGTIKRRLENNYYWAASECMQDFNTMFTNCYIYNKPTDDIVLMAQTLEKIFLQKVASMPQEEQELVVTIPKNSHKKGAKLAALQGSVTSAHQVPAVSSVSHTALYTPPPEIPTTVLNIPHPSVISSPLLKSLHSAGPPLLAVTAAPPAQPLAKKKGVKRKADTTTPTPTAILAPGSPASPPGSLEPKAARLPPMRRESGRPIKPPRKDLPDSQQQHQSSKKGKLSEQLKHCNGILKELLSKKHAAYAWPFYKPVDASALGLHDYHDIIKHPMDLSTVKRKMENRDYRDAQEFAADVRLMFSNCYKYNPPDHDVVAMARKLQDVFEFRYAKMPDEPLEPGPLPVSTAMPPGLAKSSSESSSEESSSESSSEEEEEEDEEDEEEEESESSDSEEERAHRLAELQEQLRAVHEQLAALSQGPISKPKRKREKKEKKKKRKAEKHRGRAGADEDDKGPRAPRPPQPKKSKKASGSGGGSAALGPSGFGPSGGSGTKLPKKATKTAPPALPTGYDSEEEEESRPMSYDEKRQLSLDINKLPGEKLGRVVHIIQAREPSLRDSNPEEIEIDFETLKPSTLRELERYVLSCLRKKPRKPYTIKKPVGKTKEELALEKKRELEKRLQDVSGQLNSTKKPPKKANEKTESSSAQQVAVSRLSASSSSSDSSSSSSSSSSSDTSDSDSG
Sequence of Chromatin remodeling regulator CECR2 (Homo sapiens) (Q9BXF3 whole entry, looked up): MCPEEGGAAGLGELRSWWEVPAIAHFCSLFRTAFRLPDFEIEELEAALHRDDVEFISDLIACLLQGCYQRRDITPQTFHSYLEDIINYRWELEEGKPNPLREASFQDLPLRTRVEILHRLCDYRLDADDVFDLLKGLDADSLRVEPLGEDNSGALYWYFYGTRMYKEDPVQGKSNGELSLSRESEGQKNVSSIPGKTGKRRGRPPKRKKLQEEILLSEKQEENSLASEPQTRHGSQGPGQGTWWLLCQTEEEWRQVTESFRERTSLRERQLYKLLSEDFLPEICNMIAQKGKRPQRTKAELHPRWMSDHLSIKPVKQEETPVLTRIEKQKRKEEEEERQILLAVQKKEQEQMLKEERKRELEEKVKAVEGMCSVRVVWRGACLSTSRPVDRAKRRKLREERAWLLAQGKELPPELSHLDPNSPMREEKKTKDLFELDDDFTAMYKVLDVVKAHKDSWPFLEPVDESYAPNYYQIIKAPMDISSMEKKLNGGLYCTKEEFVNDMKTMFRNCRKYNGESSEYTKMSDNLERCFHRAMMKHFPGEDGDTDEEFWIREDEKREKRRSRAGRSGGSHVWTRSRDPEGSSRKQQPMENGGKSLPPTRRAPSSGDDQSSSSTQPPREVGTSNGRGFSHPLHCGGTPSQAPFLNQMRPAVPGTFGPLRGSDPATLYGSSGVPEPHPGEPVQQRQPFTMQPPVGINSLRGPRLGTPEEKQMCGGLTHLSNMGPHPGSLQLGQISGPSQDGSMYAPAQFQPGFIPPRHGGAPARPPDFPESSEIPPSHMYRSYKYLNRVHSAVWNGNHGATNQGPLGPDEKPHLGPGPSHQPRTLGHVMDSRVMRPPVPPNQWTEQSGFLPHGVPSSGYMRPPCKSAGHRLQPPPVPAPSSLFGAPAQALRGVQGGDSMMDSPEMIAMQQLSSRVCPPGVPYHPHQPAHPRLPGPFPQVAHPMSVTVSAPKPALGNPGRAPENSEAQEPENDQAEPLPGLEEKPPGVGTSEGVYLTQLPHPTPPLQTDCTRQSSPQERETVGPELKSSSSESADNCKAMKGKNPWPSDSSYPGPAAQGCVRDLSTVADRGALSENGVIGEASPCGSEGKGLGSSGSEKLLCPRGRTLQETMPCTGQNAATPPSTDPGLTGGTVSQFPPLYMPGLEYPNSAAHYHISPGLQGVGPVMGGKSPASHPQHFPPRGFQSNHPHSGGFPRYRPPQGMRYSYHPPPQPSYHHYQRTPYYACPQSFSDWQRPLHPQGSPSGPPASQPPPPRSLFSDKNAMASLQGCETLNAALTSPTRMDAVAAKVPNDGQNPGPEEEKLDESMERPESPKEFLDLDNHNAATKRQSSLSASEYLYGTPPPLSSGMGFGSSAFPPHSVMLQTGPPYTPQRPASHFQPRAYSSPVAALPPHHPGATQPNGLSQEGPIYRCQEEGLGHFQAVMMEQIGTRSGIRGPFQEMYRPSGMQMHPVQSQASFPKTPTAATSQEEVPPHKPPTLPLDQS
Sequence of SWI/SNF-related matrix-associated actin-dependent regulator of chromatin subfamily A member 2 (Homo sapiens) (P51531 whole entry): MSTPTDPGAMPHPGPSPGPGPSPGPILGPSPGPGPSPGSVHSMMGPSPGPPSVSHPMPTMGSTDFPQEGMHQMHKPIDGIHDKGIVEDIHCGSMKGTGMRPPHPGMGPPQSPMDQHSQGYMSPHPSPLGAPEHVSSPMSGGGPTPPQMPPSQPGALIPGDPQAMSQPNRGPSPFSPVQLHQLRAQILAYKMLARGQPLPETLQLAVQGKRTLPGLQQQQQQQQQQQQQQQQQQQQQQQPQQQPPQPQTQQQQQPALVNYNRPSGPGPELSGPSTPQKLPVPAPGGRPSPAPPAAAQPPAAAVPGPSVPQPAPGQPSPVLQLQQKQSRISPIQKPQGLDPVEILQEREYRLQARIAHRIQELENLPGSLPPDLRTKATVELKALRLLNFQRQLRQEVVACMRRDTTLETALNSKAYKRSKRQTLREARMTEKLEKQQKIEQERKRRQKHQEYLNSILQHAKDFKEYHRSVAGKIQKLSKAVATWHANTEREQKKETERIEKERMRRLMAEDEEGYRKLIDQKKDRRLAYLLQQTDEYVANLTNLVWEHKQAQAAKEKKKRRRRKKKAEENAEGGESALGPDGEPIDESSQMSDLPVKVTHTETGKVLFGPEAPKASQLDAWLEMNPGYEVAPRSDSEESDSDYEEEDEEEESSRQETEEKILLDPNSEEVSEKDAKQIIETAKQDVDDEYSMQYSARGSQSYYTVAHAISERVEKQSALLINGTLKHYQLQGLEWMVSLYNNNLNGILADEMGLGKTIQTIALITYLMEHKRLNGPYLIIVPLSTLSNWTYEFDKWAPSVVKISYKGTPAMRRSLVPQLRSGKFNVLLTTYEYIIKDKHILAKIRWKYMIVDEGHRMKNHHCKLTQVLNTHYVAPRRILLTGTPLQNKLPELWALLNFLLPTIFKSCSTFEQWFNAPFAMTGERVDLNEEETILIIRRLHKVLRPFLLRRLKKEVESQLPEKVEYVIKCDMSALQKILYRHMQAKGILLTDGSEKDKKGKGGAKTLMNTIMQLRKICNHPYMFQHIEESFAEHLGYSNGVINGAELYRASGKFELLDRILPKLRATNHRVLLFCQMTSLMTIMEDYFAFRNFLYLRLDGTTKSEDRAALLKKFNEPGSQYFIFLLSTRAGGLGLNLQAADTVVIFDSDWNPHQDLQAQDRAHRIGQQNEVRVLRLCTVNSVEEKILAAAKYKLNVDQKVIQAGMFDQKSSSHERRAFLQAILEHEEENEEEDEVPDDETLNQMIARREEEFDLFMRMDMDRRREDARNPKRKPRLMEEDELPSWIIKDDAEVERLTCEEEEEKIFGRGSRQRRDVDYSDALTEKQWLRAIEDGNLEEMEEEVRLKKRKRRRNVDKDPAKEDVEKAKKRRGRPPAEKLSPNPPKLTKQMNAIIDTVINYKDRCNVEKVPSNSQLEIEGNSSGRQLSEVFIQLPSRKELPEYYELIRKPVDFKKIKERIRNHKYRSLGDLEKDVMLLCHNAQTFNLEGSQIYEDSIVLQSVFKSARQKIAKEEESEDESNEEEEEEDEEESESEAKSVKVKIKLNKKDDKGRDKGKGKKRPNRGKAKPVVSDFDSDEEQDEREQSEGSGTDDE

Structure (SMILES): CC(=O)c1cc(C(=O)Nc2cc(CO)cc(-c3cnn(C4CC4)c3)c2F)c2cc(OC(=O)N(C)C)ccn12
Papp B→A at 2 h, 10 µM [1]: 2.89 ×10⁻⁶ cm/s
ΔTm [2]: 0 °C
ΔTm [3]: -0.6 °C
ΔTm (CREB-binding protein [4]): 11.5 °C
ΔTm [5]: -0.5 °C
clearance [6]: 2.83 mL/min/kg
AUC ([7]; 24 h): 29943.87 ng·h/mL
ΔTm [8]: -1 °C
CLhep predicted at 1 µM [9]: 15.6 mL/min/kg
ΔTm [10]: -0.3 °C
CLint scaled at 1 µM [11]: 35.3 mL/min/kg
ΔTm [12]: 0 °C
ΔTm [13]: -1.5 °C
hepatic extraction ratio at 0.75 h, 1 µM (in vitro): 0.753
IC50 (LNCaP): 0.36 µM
half-life [14]: 3.24 h
recovery at 2 h, 10 µM [15]: 107%
ΔTm [16]: 11.8 °C
CLint scaled at 1 µM [17]: 98.2 mL/min/kg
AUC(0-inf) [18]: 9450 ng·h/mL
IC50 (CWR22R): > 5 µM
IC50 (CREB-binding protein [19]): 0.0213 µM
ΔTm [20]: -0.3 °C
efflux ratio at 2 h, 10 µM [21]: 14.2
Cmax [22]: 2040 ng/mL
ΔTm [23]: -3 °C
t1/2 ([24]; iv, 5 mg/kg, 24 h): 1.6 h
remaining at 0.75 h, 1 µM [25]: 44.7%
remaining at 0.75 h, 1 µM [26]: 16.9%
ΔTm [27]: 0.5 °C
IC50 (LNCaP C4-2B): > 5 µM
ΔTm [28]: -0.2 °C
half-life at 1 µM [29]: 0.295 h
ΔTm [30]: 0 °C
half-life at 1 µM [31]: 0.654 h
ΔTm [32]: 1.5 °C
Papp A→B at 2 h, 10 µM [33]: 0.2 ×10⁻⁶ cm/s
CLint scaled at 1 µM [34]: 63.3 mL/min/kg
bioavailability [35]: 6.18%
recovery at 2 h, 10 µM [36]: 95.8%
hepatic extraction ratio at 0.75 h, 1 µM [37]: 0.64
ΔTm [38]: -0.2 °C

ΔTm [2]: 1.3 °C
ΔTm [3]: -0.3 °C
ΔTm (CREB-binding protein [4]): 14 °C
ΔTm [5]: 1.5 °C
clearance [6]: 107 mL/min/kg
AUC(0-inf) ([7]; Sprague-Dawley): 796 ng·h/mL
ΔTm [8]: 0 °C
ΔTm [10]: -0.3 °C
ΔTm [12]: -0.3 °C
ΔTm [13]: 0 °C
IC50 (LNCaP): 0.44 µM
half-life [14]: 1.97 h
ΔTm [16]: 14.5 °C
AUC(0-inf) [18]: 29.4 ng·h/mL
IC50 (CREB-binding protein [19]): 0.00148 µM
ΔTm [20]: -0.8 °C
Cmax [22]: 46.8 ng/mL
ΔTm [23]: 0 °C
half-life ([24]; Sprague-Dawley): 1.32 h
Cmax [39]: 2680 ng/mL
ΔTm [27]: -0.6 °C
IC50 (LNCaP C4-2B): 2.97 µM
ΔTm [28]: -0.2 °C
ΔTm [30]: 0.5 °C
ΔTm [32]: 5.3 °C
bioavailability [35]: 0.68%
ΔTm [38]: -0.2 °C
Structure (SMILES): CC(=O)c1cc(C(=O)Nc2cc(C(C)O)cc(-c3cnn(C4CC4)c3)c2F)c2cc(N)ccn12 (stereo not given)
IC50 (CWR22R): 2.93 µM
